Laboratory results as given in article PMC3175280 (Neurochemistry international, 2011).
Values joined by “and” are separate entries in the source; they are usually repeats but may differ in a detail not shown here. Equal entries are not always repeated.

Legend:
[1] = target: wild type α1β1γ2S GABAA receptors (Rattus norvegicus, UniProt P15431+P18508+P62813); assay: P4S dose response curve, wild type receptors; format: cell-based
[2] = target: T1, S299Cα1β1γ2S GABAA receptors (Rattus norvegicus, UniProt P15431+P18508+P62813, S325C); assay: P4S dose response curve, S299C receptors; format: cell-based
T1 sequence (P62813 28-455 S325C): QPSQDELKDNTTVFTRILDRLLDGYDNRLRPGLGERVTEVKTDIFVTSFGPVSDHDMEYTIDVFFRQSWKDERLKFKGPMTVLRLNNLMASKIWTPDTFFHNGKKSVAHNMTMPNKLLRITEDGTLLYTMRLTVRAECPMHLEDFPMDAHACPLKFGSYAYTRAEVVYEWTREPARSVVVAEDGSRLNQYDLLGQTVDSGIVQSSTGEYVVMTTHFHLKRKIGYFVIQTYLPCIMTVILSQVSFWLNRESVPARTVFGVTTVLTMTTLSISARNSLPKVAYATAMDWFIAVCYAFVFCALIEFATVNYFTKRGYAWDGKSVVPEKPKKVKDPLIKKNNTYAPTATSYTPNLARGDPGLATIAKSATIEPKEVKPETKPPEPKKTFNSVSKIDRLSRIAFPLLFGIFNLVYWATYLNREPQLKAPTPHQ
T1 sequence (P15431 26-474): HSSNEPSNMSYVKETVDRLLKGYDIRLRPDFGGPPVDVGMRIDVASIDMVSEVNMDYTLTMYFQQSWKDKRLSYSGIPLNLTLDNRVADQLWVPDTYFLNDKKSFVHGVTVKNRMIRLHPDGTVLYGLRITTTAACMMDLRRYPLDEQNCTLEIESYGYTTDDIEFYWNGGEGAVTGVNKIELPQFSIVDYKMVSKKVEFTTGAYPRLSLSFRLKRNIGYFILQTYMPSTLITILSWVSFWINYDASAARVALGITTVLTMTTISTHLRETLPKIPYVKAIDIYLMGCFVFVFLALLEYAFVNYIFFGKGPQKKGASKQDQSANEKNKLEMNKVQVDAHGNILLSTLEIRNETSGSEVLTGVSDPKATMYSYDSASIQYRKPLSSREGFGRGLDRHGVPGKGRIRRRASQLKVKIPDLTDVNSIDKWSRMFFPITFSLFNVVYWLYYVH
T1 sequence (P18508 39-466): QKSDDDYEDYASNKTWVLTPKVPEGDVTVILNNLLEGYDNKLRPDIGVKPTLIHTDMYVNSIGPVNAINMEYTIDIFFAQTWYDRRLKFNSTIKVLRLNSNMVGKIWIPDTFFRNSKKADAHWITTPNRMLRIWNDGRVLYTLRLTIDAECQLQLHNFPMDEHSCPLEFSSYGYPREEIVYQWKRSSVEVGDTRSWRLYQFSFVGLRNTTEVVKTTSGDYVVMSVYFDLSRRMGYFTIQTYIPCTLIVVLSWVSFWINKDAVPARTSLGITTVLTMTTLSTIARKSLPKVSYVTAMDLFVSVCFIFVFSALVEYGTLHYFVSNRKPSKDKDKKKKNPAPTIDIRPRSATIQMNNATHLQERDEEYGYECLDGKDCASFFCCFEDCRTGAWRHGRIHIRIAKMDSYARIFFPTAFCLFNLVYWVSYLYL

[3] = target: T1, S299Cα1β1γ2S GABAA receptors; assay: Substituted cysteine accessibility; format: cell-based; conditions: for reduction of subsequent ALLO induced current: 0.5 mM pCMBS added with 5 nM ALLO; for inhibition of subsequent ALLO induced current: 0.5 mM pCMBS added with 100 nM ALLO
[4] = target: T2, wt α1β1γ2S GABAA receptors (Rattus norvegicus, UniProt P15431+P18508+P62813); assay: SCAM with pCMBS on ALLO-induced currents, wt receptors; format: cell-based; conditions: pCMBS added in any concentration of ALLO (not shown)
T2 sequence (P62813 28-455): as the sequence (P62813 28-455 S325C) above, with C298S counted along it
T2 sequence (P15431 26-474): as the sequence (P15431 26-474) above
T2 sequence (P18508 39-466): as the sequence (P18508 39-466) above

[5] = target: T1, S299Cα1β1γ2S GABAA receptors; conditions: pCMBS added in the presence of GABA; ref Williams and Akabas 1999; cited from earlier work
[6] = tested on: α1S299C containing GABAA receptors; conditions: ref Williams and Akabas 1999, 2000, 2002; cited from earlier work
[7] = tested on: α1S299C containing GABAA receptors; conditions: preliminary dose response (not shown)
[8] = target: T1, S299Cα1β1γ2S GABAA receptors; assay: Blocking ALLO-induced current with picrotoxin; format: cell-based; conditions: 1 mM PTN co-applied with 5 nM ALLO
[9] = target: T2, wt α1β1γ2S GABAA receptors; assay: Steroid activation; format: cell-based
[10] = target: T2, wt α1β1γ2S GABAA receptors; format: cell-based; conditions: 0.5 μM ALLO, about EC30, n=3
[11] = target: T1, S299Cα1β1γ2S GABAA receptors; assay: Steroid activation; format: cell-based; conditions: for current passed, % of 1 mM GABA current: representative trace; for first peak maximal current (curve fit), % of maximal (1 mM GABA) current: first (low concentration) peak of the bimodal dose response; for second peak maximal current (curve fit), % of maximal (1 mM GABA) current: second (high concentration) peak of the bimodal dose response
[12] = target: T1, S299Cα1β1γ2S GABAA receptors; assay: Extreme low dose assay; format: cell-based; conditions: for co-application current, scaled to the added currents = 1 / added separate currents, scaled: n=4; for difference between co-applied and added currents: not significant
[13] = target: T1, S299Cα1β1γ2S GABAA receptors; assay: Steroid potentiation of submaximal GABA current, S299C receptors; format: cell-based; conditions: not shown for THDOC
[14] = target: T1, S299Cα1β1γ2S GABAA receptors; assay: Blocking ALLO-induced current with isoallopregnanolone; format: cell-based

wild type α1β1γ2S GABAA receptors, sequence (P62813 28-455): as the sequence (P62813 28-455 S325C) above, with C298S counted along it
wild type α1β1γ2S GABAA receptors, sequence (P15431 26-474): as the sequence (P15431 26-474) above
wild type α1β1γ2S GABAA receptors, sequence (P18508 39-466): as the sequence (P18508 39-466) above

O=S(=O)(O)C1CCNCC1 [P4S, Piperidine-4-sulfonic acid]
Kd [1]: 110 ± 37 µM
maximal current induced, % of 1 mM GABA current ([1]; wt, n of 3): 61 ± 3.7%
Kd [2]: 90 ± 18 µM
maximal current induced, % of 1 mM GABA current ([2]; S299C, n of 3): 58 ± 1.6%

O=S(=O)(O)c1cc[c]([Hg][Cl])cc1 [pCMBS^−, para-chloromercuribenzenesulfonic acid]
reduction of subsequent ALLO induced current ([3]; subsequent 5 nM ALLO current): 28 ± 8%
reduction of subsequent ALLO induced current ([3]; subsequent 100 nM ALLO current): 22 ± 20%
inhibition of subsequent ALLO induced current ([3]; subsequent 5 nM ALLO current): 63 ± 15%
inhibition of subsequent ALLO induced current ([3]; subsequent 100 nM ALLO current): 63 ± 15%
decrease of ALLO current during co-application ([3]; 0.5 mM pCMBS applied simultaneously with 5 nM ALLO): 7 ± 29%
reduction of ALLO current during co-application ([3]; 0.5 mM pCMBS co-applied with 100 nM ALLO): 62 ± 17%
percent difference in subsequent ALLO current ([3]; pCMBS added with 1 μM ISO, subsequent 100 nM ALLO current): −71 ± 10%
percent difference in subsequent ALLO current ([3]; pCMBS co-applied with 100 nM ISO, subsequent 5 nM ALLO current): 3 ± 14%
effect on subsequent ALLO currents ([3]; pCMBS plus 5 nM ISO, subsequent 5 nM or 100 nM ALLO currents (not shown)): did not affect
effect on subsequent ALLO induced currents [4]: did not affect
accessibility of S299C to modification [5]: not accessible to be modified

NCCCC(=O)O [GABA]
response of α1S299C containing receptors compared with wild type [6]: near wild type

CCO [ethanol, Ethanol]
shift of EC50 versus wt [7]: shift to a higher EC50

C[C@]12CC[C@@H](O)C[C@@H]1CC[C@@H]1[C@@H]2CC[C@]2(C)C(c3ccccc3)=CC[C@@H]12 [17-PA, (3α,5α)-17-phenylandrost-16-en-3-ol]
percent change of 100 nM ALLO induced current ([3]; 1 μM 17-PA added with pCMBS, subsequent 100 nM ALLO current): −4 ± 8%

Picrotoxin [PTN]
block of ALLO induced current [8]: 80 ± 20% and ~80%

CC(=O)[C@H]1CC[C@H]2[C@@H]3CC[C@H]4C[C@H](O)CC[C@]4(C)[C@H]3CC[C@]12C [ALLO, 3α-hydroxy-5α-pregnan-20-one]
EC50 [9]: 870 nM
maximal steroid induced current, % of 1 mM GABA current ([9]; wt receptors, steroid alone, −60 mV): about 43 ± 15%
potentiation, percent increase of 1 μM GABA current [10]: 120 ± 28%
inward current, % of 1 mM GABA current ([11]; 50 pM steroid, no GABA, n=4): 6 ± 4%
current passed, % of 1 mM GABA current ([11]; 5 nM steroid): approximately 50%
current passed, % of 1 mM GABA current ([11]; 100 nM steroid): approximately 50%
EC50 ([11]; EC50, first activation curve, first plateau to valley fit as a separate curve): 0.59 nM
EC50 ([11]; EC50, second activation curve, second plateau to valley fit as a separate curve): 70 nM
first peak maximal current (curve fit), % of maximal (1 mM GABA) current [11]: 58 ± 0.25%
second peak maximal current (curve fit), % of maximal (1 mM GABA) current [11]: 42 ± 0.26%
co-application current, scaled to the added currents = 1 ([12]; 100 pM ALLO + 100 nM GABA co-applied): 1.21 ± 0.45
added separate currents, scaled ([12]; 100 pM ALLO alone plus 100 nM GABA alone): 1.0 ± 0.35
co-application current, scaled to the added currents = 1 ([12]; 5 nM ALLO + 100 nM GABA co-applied): 1.27 ± 0.39
added separate currents, scaled ([12]; 5 nM ALLO alone plus 100 nM GABA alone): 1.0 ± 0.21
difference between co-applied and added currents ([12]; 100 nM GABA and 100 pM ALLO): 20%
difference between co-applied and added currents ([12]; 100 nM GABA and 5 nM ALLO): 27%
potentiation of submaximal GABA current [13]: no significant potentiation

CC(=O)[C@H]1CC[C@H]2[C@@H]3CC[C@H]4C[C@@H](O)CC[C@]4(C)[C@H]3CC[C@]12C [ISO, 3β-hydroxy-5α-pregnan-20-one]
block of ALLO induced current ([14]; 5 nM ISO, 5 nM ALLO): 90 ± 5% and 80–85%
block of ALLO induced current ([14]; 5 nM ISO, 100 nM ALLO): 86 ± 8% and 80–85%
block of ALLO induced current ([14]; 100 nM ISO, 5 nM ALLO): 73 ± 4%

C[C@]12CC[C@@H](O)C[C@@H]1CC[C@@H]1[C@@H]2CC[C@]2(C)[C@@H](C(=O)CO)CC[C@@H]12 [THDOC, 3α,21-hydroxy-5α-pregnan-20-one]
current passed, % of 1 mM GABA current ([11]; 1 nM steroid): more than 50%
current passed, % of 1 mM GABA current ([11]; 100 nM steroid): approximately 50%
first peak maximal current (curve fit), % of maximal (1 mM GABA) current [11]: 57 ± 5.3%
second peak maximal current (curve fit), % of maximal (1 mM GABA) current [11]: 48 ± 0.35%
potentiation of submaximal GABA current [13]: no significant potentiation

CC(C)c1cccc(C(C)C)c1O [propofol]
response of α1S299C containing receptors compared with wild type [6]: near wild type
